According to US20080027141A1, “1,3-Dihydroxyl-9,10-anthraquinone and 3-[(3-amino)-propoxy]- 9,10-anthraquinone derivatives and pharmaceutical compositions comprising the same” (Kaohsiung Medical University, priority 2006, published 2008):
Read-outs that look alike come from different tables or passages of the source.

Experiments:
[1] = test system: several cancer cell lines; assay: Cytotoxic effects against several cancer cell lines in vitro; type: cell-based
Experimental: The cytotoxicity was determined by colorimetric MTT (3-(4,5-dimethylthiazole-2-yl)-2,5-diphenyl-1H-tetrazolium bromide)(Sigma, St. Louis, Mo.) assay as described previously (Wei, Bai-Luh et al. (2000), Eur. J. Med. Chem., 35, 1089-1098). Briefly, cells (5×10^3/well) were plated in 96-well plates and incubated in medium for 6 h, followed by addition of serial dilutions (50 μL/well) of each of the tested compounds. After incubation at 37° C. for 5 or 6 days, the cells were pulsed with 10 μL of MTT (5 mg/mL) and incubated for an additional 4 h at 37° C. Reduced MTT was measured spectrophotometrically using a Dynatech MR 5000 microplate reader (Dynatech Laboratories, Va.) at 550 nm after lysis of cells with 100 μL of 10% SDS in 0.01 M HCl. Control wells contained medium plus cells (total absorbance) or medium alone (background absorbance).

[2] = test system: HepG2 cells (human hepatoma)
Experimental: (§1) For the microassay, the growth medium was supplemented with 10 mM HEPES buffer (pH 7.3) and incubated at 37° C. in a CO2 incubator.
(§2) The cytotoxicity was determined by colorimetric MTT (3-(4,5-dimethylthiazole-2-yl)-2,5-diphenyl-1H-tetrazolium bromide)(Sigma, St. Louis, Mo.) assay as described previously (Wei, Bai-Luh et al. (2000), Eur. J. Med. Chem., 35, 1089-1098). Briefly, cells (5×10^3/well) were plated in 96-well plates and incubated in medium for 6 h, followed by addition of serial dilutions (50 μL/well) of each of the tested compounds. After incubation at 37° C. for 5 or 6 days, the cells were pulsed with 10 μL of MTT (5 mg/mL) and incubated for an additional 4 h at 37° C. Reduced MTT was measured spectrophotometrically using a Dynatech MR 5000 microplate reader (Dynatech Laboratories, Va.) at 550 nm after lysis of cells with 100 μL of 10% SDS in 0.01 M HCl. Control wells contained medium plus cells (total absorbance) or medium alone (background absorbance). Cell death was calculated as the percentage of MTT inhibition:
(§3) In the experiment, 5-fluorouracil(5-Fu) was used as a positive control.

[3] = test system: Hep3B cells (human hepatoma)
Experimental: as §1, §2, §3

[4] = test system: HT-29 cells (human colorectal adenocarcinoma)
Experimental: as §1, §2, §3

[5] = test system: HepG2 cells (human hepatoma); assay: In vitro anticancer assay (cytotoxicity), MTT, HepG2; settings: for Cytotoxic activity against HepG2 cells (in words): in vitro; for EC50: Homo sapiens, HepG2, read-out: Cytotoxicity ED50, HepG2
Experimental: as §1, §2, §3

[6] = test system: Hep3B cells (human hepatoma); assay: In vitro anticancer assay (cytotoxicity), MTT, Hep3B; settings: for EC50: Homo sapiens, Hep3B, read-out: Cytotoxicity ED50, Hep3B
Experimental: as §1, §2, §3

[7] = test system: HT-29 cells (human colorectal adenocarcinoma); assay: In vitro anticancer assay (cytotoxicity), MTT, HT-29; settings: for EC50: Homo sapiens, HT-29, read-out: Cytotoxicity ED50, HT-29
Experimental: as §1, §2, §3

[8] = test system: MCF-7 cells (human breast adenocarcinoma); assay: In vitro anticancer assay (cytotoxicity), MTT, MCF-7; settings: for EC50: Homo sapiens, MCF7, read-out: Cytotoxicity ED50, MCF-7; for Cytotoxic activity against MCF-7 cells (in words): in vitro
Experimental: as §1, §2, §3

[9] = test system: MCF-7 cells (human breast adenocarcinoma)
Experimental: as §1, §2, §3

[10] = test system: MCF-7 cells; assay: Flow cytometry analysis (cell cycle, sub-G1, propidium iodide); type: cell-based, human
Experimental: DNA contents were analyzed by flow cytometry, and apoptosis was measured by the accumulation of sub-G1 DNA contents in cells. Results were representative of three independent experiments; and
Flow cytometry was used to determine the change of cell cycle of human cancer cells caused by the treatment of a compound according to this invention.
MCF cells (1×10^4 cells/mL) were treated with various concentrations (6.9, 13.7, and 27.5 μM) of Compound 16 for different time periods (24 h, 48 h and 72 h), followed by washing with PBS so as to terminate the reaction. After fixation with 4% paraformaldehyde/PBS (pH 7.4) at room temperature for 30 min, the cells were centrifuged at 1,000 rpm for 10 min and then permeabilized with 0.1% Triton-X-100/0.1% sodium citrate at 4° C. for 2 min. Subsequently, propidium iodide (Sigma) in PBS (10 μg/mL) was added to stain the cells at 37° C. for 30 min. The intensity of fluorescence was measured with a FACScan flow cytometer (Becton Dickinson, Mountain View, Calif.). A minimum of 5000 cell counts was collected for the analysis by LYSIS II Software.
It has been recognized that apoptotic cells have reduced DNA stainability with a variety of fluorochromes (Ojeda, F. et al. (1990), Cell Immunol., 125:535-539; Afanasev, V. N. et al. (1986), FEBS Lett., 194: 347-350). The appearance of cells with low DNA stainability forms a “sub-G1 peak”, which has been considered to be the hallmark of cell death by apoptosis (Darzynkiewicz, Z. et al. (1992), Cytometry, 13, 795-808). […] In this invention, the applicants proposed that the NHA derivatives might induce cell death by the same way. MCF-7 cells were treated with different concentrations of representative Compound 16 for different time periods.

[11] = test system: MCF-7 cells; assay: DNA fragmentation assay (agarose gel electrophoresis); type: cell-based, human; settings: 48 and 72 h incubation, 6.9, 13.7 and 27.5 μM
Experimental: Results were representative of three independent experiments.
DNA fragmentation in general is used to characterize cell death by apoptosis (Wyllic, A. H. et al. (1980), Int. Rev. Cytol., 68:251-306; Arends, M. J. and Wyllic, A. H. (1991), Int. Rev. Exp. Pathol., 32:223-254). Apoptosis of MCF-7 cells after treatment with the representative Compound 16 was also studied by DNA fragmentation assay.
MCF cells (1×10^4 cells/mL) in 150-mm plates were treated with various concentrations (6.9, 13.7, and 27.5 μM) of Compound 16 for different time periods (24 h, 48 h and 72 h), followed by washing with PBS so as to terminate the reaction. After the addition of 100 μL lysis buffer [1% of NP-40 (Sigma) in 20 mM EDTA, 50 mM Tris-HCl, pH 7.5] and mixing, the resultant cell lysates were centrifuged at 14,000 rpm for 5 min and the supernatants were collected. The supernatants were incubated with 50 μL of RNase A (20 mg/mL) and 20 μL of SDS (10%) at 56° C. for 2 h. Thereafter, 35 μL of proteinase K (20 mg/mL) was added and the resultant mixture was incubated at 37° C. overnight. DNA fragments were precipitated after the addition of 150 μL of 10M NH4OAc and 1.2 mL of 100% ethanol at −20° C. overnight. After centrifuging and drying, the thus-obtained DNA pellets were re-suspended in 15 μL Tris-EDTA buffer and electrophoresed on a 1% agarose gel in TBE buffer at 30 V for 8 h. […]

[12] = test system: HepG2 cells (human hepatoma); settings: Wei, Bai-Luh et al. (2000); read-out: ED50, HepG2 (applicants' earlier study); cited from earlier work
[13] = test system: Hep3B cells (human hepatoma); settings: Wei, Bai-Luh et al. (2000); read-out: ED50, Hep3B (applicants' earlier study); cited from earlier work

Row | Structure (SMILES) | EC50 [5] [µM] | EC50 [6] [µM] | EC50 [7] [µM] | EC50 [8] [µM] | also measured
1 | O=C1c2ccccc2C(=O)c2c(O)cc(O)cc21 [Compound 1, 1,3-dihydroxy-9,10-anthraquinone] |  |  |  |  | Cytotoxic effects against several cancer cell lines (in words) [1]: failed to show cytotoxic effects
2 | O=C1c2ccccc2C(=O)c2c(O)cc(OCCCBr)cc21 [Compound 2, 1-hydroxy-3-(3-bromopropoxy)-9,10-anthraquinone] |  |  |  |  | Cytotoxic activity against HepG2 cells (in words) [2]: no significant cytotoxic activity; Cytotoxic activity against Hep3B cells (in words) [3]: no significant cytotoxic activity; Cytotoxic activity against HT-29 cells (in words) [4]: no significant cytotoxic activity
3 | O=C1c2ccccc2C(=O)c2cc(O)ccc21 [Compound 3, 3-hydroxy-9,10-anthraquinone] |  |  |  |  | Cytotoxic activity against HepG2 cells (in words) [5]: no significant cytotoxic activity; Cytotoxic activity against Hep3B cells (in words) ([6]; in vitro): no significant cytotoxic activity; Cytotoxic activity against HT-29 cells (in words) ([7]; in vitro): no significant cytotoxic activity
4 | O=C1c2ccccc2C(=O)c2cc(OCCCBr)ccc21 [Compound 4, 3-(3-bromopropoxy)-9,10-anthraquinone] |  |  |  |  | Cytotoxic activity against HepG2 cells (in words) [2]: no significant cytotoxic activity; Cytotoxic activity against Hep3B cells (in words) [3]: no significant cytotoxic activity; Cytotoxic activity against HT-29 cells (in words) [4]: no significant cytotoxic activity
5 | CC(C)=CCc1c(O)cc(O)c2c1C(=O)c1ccccc1C2=O [Compound 5, 1,3-Dihydroxy-4-prenyl-9,10-anthraquinone] | 1.23 ± 0.05 | 9.09 | 56.2 | 172 | Cytotoxic activity against HepG2 cells (in words) [5]: potent cytotoxicity
6 | O=c1[nH]cc(F)c(=O)[nH]1 [Compound 5-FU, 5-fluorouracil, reference compound] | 0.25 | 0.55 | 0.57 |  | 
7 | CC(C)NCCCOc1cc(O)c2c(c1)C(=O)c1ccccc1C2=O [Compound 6, 1-Hydroxy-3-[3-(isopropylamino)-propoxy]-9,10-anthraquinone] | 5.52 | 5.97 | 4.72 |  | 
8 | CC(C)(C)NCCCOc1cc(O)c2c(c1)C(=O)c1ccccc1C2=O [Compound 7, 3-[3-(tert-Butylamino)-propoxy]-1-hydroxy-9,10-anthraquinone] | 5.3 | 6.8 | 7.93 |  | 
9 | CCCCNCCCOc1cc(O)c2c(c1)C(=O)c1ccccc1C2=O [Compound 8, 3-[3-(Butylamino)-propoxy]-1-hydroxy-9,10-anthraquinone] | 4.42 | 7.93 | 6.52 |  | 
10 | CCN(CC)CCCOc1ccc2c(c1)C(=O)c1ccccc1C2=O [Compound 9, 3-[3-(Diethylamino)-propoxy]-9,10-anthraquinone] | 17.2 | 12.8 | 11.9 | 16.1 | 
11 | CCCNCCCOc1ccc2c(c1)C(=O)c1ccccc1C2=O [Compound 10, 3-[3-(Propylamino)-propoxy]-9,10-anthraquinone] | 8.92 | 12.4 | 6.19 | 8.36 | 
12 | CC(C)NCCCOc1ccc2c(c1)C(=O)c1ccccc1C2=O [Compound 11, 3-[3-(Isopropylamino)-propoxy]-9,10-anthraquinone] | 5.39 | 11.5 | 7.12 | 11.5 | Cytotoxic activity against HepG2 cells (in words) [2]: potent cytotoxic activity
13 | CCCCNCCCOc1ccc2c(c1)C(=O)c1ccccc1C2=O [Compound 12, 3-[3-(Butylamino)-propoxy]-9,10-anthraquinone] | 7.12 | 14.2 | 14.5 | 10.4 | 
14 | CC(C)CNCCCOc1ccc2c(c1)C(=O)c1ccccc1C2=O [Compound 13, 3-[3-(Isobutylamino)-propoxy]-9,10-anthraquinone] | 10.4 | 9.26 | 7.72 | 14.2 | 
15 | CC(C)(C)NCCCOc1ccc2c(c1)C(=O)c1ccccc1C2=O [Compound 14] |  |  |  |  | EC50 [2]: 17.5 µM; EC50 [3]: 23.2 µM; EC50 [4]: 12.9 µM; EC50 [9]: 20.8 µM
16 | O=C1c2ccccc2C(=O)c2cc(OCCCNC3CCCCC3)ccc21 [Compound 15, 3-[3-(Cyclohexylamino)-propoxy]-9,10-anthraquinone] | 16 | 4.96 | 3.86 | 5.79 | Cytotoxic activity against Hep3B cells (in words) [3]: stronger cytotoxic activities; Cytotoxic activity against HT-29 cells (in words) [4]: stronger cytotoxic activities; Cytotoxic activity against MCF-7 cells (in words) [8]: stronger cytotoxic activities
17 | CN1CCN(CCCOc2ccc3c(c2)C(=O)c2ccccc2C3=O)CC1 [Compound 16] | 8.41 | 13.7 | 4.67 | 3.02 | cell cycle effect ([10]; 6.9, 13.7, 27.5 μM): arrest G2/M and S phases; sub-G1 peak in DNA histograms ([10]; 6.9, 13.7, 27.5 μM, 24, 48, 72 h): detected; maximum apoptosis cells ([10]; at 72 h): 19.97%; DNA fragmentation [11]: significantly observed; Cytotoxic activity against HepG2 cells (in words) [2]: less potent cytotoxic activity; Cytotoxic activity against Hep3B cells (in words) [3]: less potent cytotoxic activity; Cytotoxic activity against HT-29 cells (in words) [4]: potent cytotoxic activity; Cytotoxic activity against MCF-7 cells (in words) [8]: potent cytotoxic activity
18 | CN(C)CCCOc1cc(O)c2c(c1)C(=O)c1ccccc1C2=O [Compound 19, 1-hydroxy-3-[3-(dimethylamino)-propoxy]-9,10-anthraquinone] |  |  |  |  | EC50 [12]: ~2.6 µM; EC50 [13]: ~7.1 µM
